The values that follow come from paper PMC6337631, “Effective Tetradentate Compound Complexes against Leishmania spp. that Act on Critical Enzymatic Pathways of These Parasites” (Molecules, 2018).

The subject of test [1] is L. donovani promastigotes. The test is described as follows: Ultrastructural alterations by TEM, L. donovani. The conditions noted are these: 72 h at IC25 concentration. In kind it is cell-based, Leishmania donovani. The procedure:
(§1) Parasites were cultured at a density of 5 × 10^5 cells/mL with medium containing the tested compounds at IC25 concentrations. After 72 h at 28 °C, the cultures were processed using a technique previously described and analysed by TEM (LIBRA 120 PLUS, Zeiss, Barcelona, Spain).

For test [2], the system named is Leishmania infantum promastigote forms. The test is described as follows: Promastigote test (extracellular forms), L. infantum. In kind it is cell-based. The conditions noted are these: Leishmania infantum; 72 h; 100 µM to 1 µM; mean ± SD of four determinations. The protocol: (§2) Promastigote forms of three different Leishmania spp., L. donovani (MHOM/PE/84/LC26), L. infantum (MCAN/ES/2001/UCM-10) and L. braziliensis (MHOM/BR/1975/M2904), were cultured in vitro in Medium Trypanosomes Liquid (MTL) supplemented with 10% inactivated foetal calf serum (FCS) in an air atmosphere at 28 °C, in Roux flasks (Corning, Manassas, VA, USA) with a surface area of 75 cm^2, according to [33].
(§3) The compounds and the reference drug Glu were dissolved in DMSO (Panreac, Barcelona, Spain) and tested from 100 µM to 1 µM with 0.1% (v/v) DMSO final concentration in plates. Therefore, controls were prepared including 0.1% (v/v) of this component, as previously described.
Promastigote forms were collected in the exponential growth phase and seeded at 1 × 10^5 parasites/mL in 24-well microplates (Nunc, Naperville, IL, USA), after adding each compound at concentrations from 100 µM to 1 µM and cultured in 500 μL/well volumes at 28 °C. After 72 h incubation, the leishmanicidal activity was assessed using a Neubauer haemocytometric chamber in comparison with the control cultures. […] Each drug concentration was tested in triplicate in four separate determinations.

In test [3] the test system is Leishmania infantum amastigote forms. The test is described as follows: Amastigote test (intracellular forms in J774.2 macrophages), L. infantum. In kind it is cell-based. As to conditions: Leishmania infantum, 72 h, mean ± SD. The protocol:
as §2, §3
(§4) J774.2 macrophages were grown and seeded at a density of 1 × 10^4 cells/well in 24-well microplates (Nunc) with rounded coverslips on the bottom and cultured for 48 h in humidified 95% air, 5% CO2 atmosphere at 37 °C in Minimal Essential Medium (MEM) with 2 mM glutamine and 20% (v/v) inactivated FCS. Adherent macrophages were infected with metacyclic promastigotes in the stationary growth phase of L. donovani, L. infantum and L. braziliensis at a multiplicity of infection (MOI) ratio of 1:10 and maintained for 24 h. Non-phagocytosed parasites were removed by washing, and after addition of the testing compounds at concentrations from 100 µM to 1 µM, cultured in 500 μL/well volumes. Control cultures were also included. After 72 h incubation, leishmanicidal activity was assessed based on the number of amastigotes in treated and untreated cultures in methanol-fixed and Giemsa-stained preparations by analyzing 500 host cells distributed in randomly chosen microscopic fields. The leishmanicidal effect was calculated as described to determine the leishmanicidal activity in the promastigote forms. Each drug concentration was tested in triplicate in four separate determinations.

In test [4] the test system is L. infantum promastigotes. The test is described as follows: Ultrastructural alterations by TEM, L. infantum. It is filed as cell-based, Leishmania infantum. As to conditions: 72 h at IC25 concentration. The protocol: as §1
The test system of test [5] is Leishmania donovani amastigote forms. The test is described as follows: Amastigote test (intracellular forms in J774.2 macrophages), L. donovani. The conditions noted are these: Leishmania donovani, 72 h, mean ± SD. In kind it is cell-based. The protocol: as §2, §3, §4
For test [6], the system named is L. braziliensis promastigotes. In words: Ultrastructural alterations by TEM, L. braziliensis. It is filed as cell-based, Leishmania braziliensis. The conditions noted are these: 72 h at IC25 concentration. The protocol: as §1
The subject of test [7] is J774.2 murine macrophages. The test is described as follows: Cytotoxicity test on macrophages by flow cytometry. In kind it is cell-based, mouse. The conditions noted are these: Mus musculus, J774.2 macrophages, 72 h, read-out: Toxicity IC50 Macrophage. The procedure: as §3
The macrophage line J774.2 [European collection of cell cultures (ECACC) number 91051511] was derived in 1968 from a tumour in a female BALB/c mouse. Macrophages were grown in humidified 95% air, 5% CO2 atmosphere at 37 °C in Minimal Essential Medium (MEM) with 2 mM glutamine and 20% (v/v) inactivated FCS. The cytotoxicity test on macrophages was performed by Flow cytometry analysis according to a method previously described. Briefly, cells were seeded at a density of 5 × 10^4 cells/well in 24-well microplates (Nunc, Naperville, IL, USA). After 48 h incubation, the medium was removed, and fresh medium was added together with each test compound at concentrations from 100 µM to 1 µM and cultured in 500 μL/well volumes for 72 h. Thereafter, cells were recovered by centrifugation, and cell viability was determined by Flow cytometry (FACS Vantage flow cytometer, Becton Dickinson, San Jose, CA, USA) after incubating the cells with propidium iodide ([…]) and fluorescein diacetate (100 ng/mL). The percentage of viability was calculated in comparison with the control cultures. […] Each drug concentration was tested in triplicate in four separate determinations.
(In general: A flow cytometer gives signals particle by particle.)

Usually IC50 stands for the concentration that inhibits the measured activity by half.

Consider `CN(C)c1ccnc(CN2CCC[C@H]2[C@@H]2CCCN2Cc2cc(N(C)C)ccn2)c1` [Compound 7], for which, in test [1], the “ultrastructural alterations of L. donovani promastigotes (TEM)” value is “cytoplasmic emptiness, none or a few ribosomes, swollen and disintegrated mitochondria and abundant lipid and non-lipid vacuoles”. Also, the IC50 in test [2] amounted to 12.3 ± 2.2 µM; in test [3] it was 9 ± 0.4 µM; in test [5], 1.1 ± 0.2 µM; in test [7], 172 ± 11.3 µM. In addition, the “ultrastructural alterations of L. infantum promastigotes (TEM)” value in test [4] was “most destructive compounds”. Also, the “ultrastructural alterations of L. braziliensis promastigotes (TEM)” value in test [6] is “damaged, swollen, and full of vacuoles”.
